Experimental data reported in patent US11999727B2 (Tango Therapeutics, Inc., priority 2020, dated 2024).

Key:
[1] = biological target: T1, PRMT5 (Homo sapiens, UniProt O14744); assay: PRMT5 biochemical IC50 assay with no cofactor; settings: PRMT5, no cofactor
T1 construct: purchased Viva (custom protein)
Excerpt: Table 1 indicates IC50 values (μM) against PRMT5 for exemplary compounds in the presence of SAM as cofactor, with no cofactor, and with MTA as cofactor, respectively (columns 4-6). […] Ki values can be calculated from the IC50 values as described in the Examples section. As detailed in the Examples section, for the assay performed in the presence of SAM, IC50=Ki×1.5 (Ki=IC50/1.5).

[2] = biological target: T1, PRMT5; assay: PRMT5 biochemical IC50 assay with SAM as cofactor; settings: PRMT5, SAM as cofactor; read-out: SAM IC50
[3] = biological target: T1, PRMT5; assay: PRMT5 biochemical IC50 assay with MTA as cofactor; settings: PRMT5, MTA as cofactor; read-out: MTA IC50
[4] = tested on: HAP1 MTAP-deleted cell line; assay: SDMA in-cell western assay, HAP1 MTAP-deleted; type: cell-based; settings: for IC50: Homo sapiens; for MTAP intact/deleted ratio: SDMA in-cell western
Excerpt: Table 1 also indicates IC50 values in an MTAP-isogenic cell line pair for exemplary compounds in an SDMA in-cell western assay (columns 7-8). HAP1 MTAP-intact is a cell line in which endogenous levels of MTAP are expressed, and HAP1 MTAP-deleted is an MTAP-null cell line.

[5] = tested on: HAP1 MTAP-deleted cell line; assay: Viability assay, MTAP-deleted cell line; type: cell-based
Excerpt: Table 1 additionally indicates IC50 values in a viability assay for the MTAP-deleted cell line (column 10), indicating the effect of treatment with compound on cell survival.

[6] = read-out: No Cofactor/ rel IC50
[7] = Homo sapiens, HAP1, read-out: HAP1 MTAP deleted viability

T1 sequence (O14744 whole entry): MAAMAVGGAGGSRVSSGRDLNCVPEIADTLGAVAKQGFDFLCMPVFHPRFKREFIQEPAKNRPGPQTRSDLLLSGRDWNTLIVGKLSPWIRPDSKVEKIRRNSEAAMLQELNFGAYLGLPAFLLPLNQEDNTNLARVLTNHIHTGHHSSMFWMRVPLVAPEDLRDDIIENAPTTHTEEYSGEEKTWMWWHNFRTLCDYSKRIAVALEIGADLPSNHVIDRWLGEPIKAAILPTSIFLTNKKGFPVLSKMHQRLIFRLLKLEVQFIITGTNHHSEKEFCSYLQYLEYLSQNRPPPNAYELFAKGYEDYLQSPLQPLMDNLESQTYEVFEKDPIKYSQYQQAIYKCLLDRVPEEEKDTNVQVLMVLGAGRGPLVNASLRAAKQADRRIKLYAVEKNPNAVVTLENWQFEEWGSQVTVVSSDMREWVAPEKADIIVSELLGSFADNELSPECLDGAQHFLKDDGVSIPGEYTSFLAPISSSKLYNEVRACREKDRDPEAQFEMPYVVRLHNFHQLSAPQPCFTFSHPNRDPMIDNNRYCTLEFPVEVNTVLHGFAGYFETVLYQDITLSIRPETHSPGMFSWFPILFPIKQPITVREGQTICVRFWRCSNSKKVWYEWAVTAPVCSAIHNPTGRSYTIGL
T1 sequence (Q9BQA1 whole entry partner): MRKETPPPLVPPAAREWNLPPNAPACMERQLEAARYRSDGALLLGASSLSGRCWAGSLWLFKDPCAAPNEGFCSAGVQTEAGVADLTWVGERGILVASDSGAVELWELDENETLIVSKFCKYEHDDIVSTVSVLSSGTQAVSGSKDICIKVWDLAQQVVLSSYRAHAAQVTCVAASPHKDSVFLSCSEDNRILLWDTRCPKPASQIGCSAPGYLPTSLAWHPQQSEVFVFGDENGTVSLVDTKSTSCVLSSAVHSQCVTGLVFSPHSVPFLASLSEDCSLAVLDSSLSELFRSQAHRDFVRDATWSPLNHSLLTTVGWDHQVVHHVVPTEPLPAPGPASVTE

| IC50 [1, 6] [µM] | IC50 [2] [µM] | IC50 [3] [µM] | IC50 ([1]; read-out: No Cofactor/rel IC50) [µM] | Compound | other results |
| --- | --- | --- | --- | --- | --- |
| > 0.5 | > 0.5 | > 0.5 | – | Cc1ccc([C@H]2CC[C@H](C)CN2C(=O)C(=O)Nc2cncc(C)c2)cc1 (single isomer, unassigned) [Compound 12] | – |
| – | > 0.5 | > 0.5 | > 0.5 | C[C@@H]1CC[C@@H](c2ccc(C(F)(F)F)c(Cl)c2)N(C(=O)C(=O)Nc2cncc(C(N)=O)c2)C1 (single isomer, unassigned) [Compound 647] | – |
| – | > 0.5 | > 0.5 | > 0.5 | Cc1cc(NC(=O)C(=O)N2C[C@@H](C)CC[C@@H]2c2cccc(N(C)C)c2)cnc1N (single isomer, unassigned) [Compound 387] | – |
| – | > 0.5 | 0.05 to 0.5 | > 0.5 | NC(=O)c1cncc(NC(=O)C(=O)N2C[C@@H](CO)CC[C@H]2c2ccccc2)c1 (racemic) [Compound 285, 5-(2-(5-(hydroxymethyl)-2-phenylpiperidin-1-yl)-2-oxoacetamido)nicotinamide] | – |
| > 0.5 | > 0.5 | > 0.5 | – | C[C@@H]1CC[C@@H](C2CCCCC2)N(C(=O)C(=O)Nc2cncc(C(N)=O)c2)C1 (single isomer, unassigned) [Compound 130] | – |
| > 0.5 | > 0.5 | > 0.5 | – | CC[C@H]1CC[C@@H](c2ccccc2)N(C(=O)C(=O)Nc2cncc(C)c2)C1 (single isomer, unassigned) [Compound 20] | – |
| > 0.5 | > 0.5 | > 0.5 | – | Cc1cc(NC(=O)C(=O)N2C[C@@H](C)CC[C@@H]2C2CCCCC2)cnc1N (single isomer, unassigned) [Compound 152] | – |
| > 0.5 | > 0.5 | > 0.5 | – | Cc1cncc(NC(=O)C(=O)N2CC(C)CC[C@@H]2c2cccc(F)c2)c1 (single isomer, unassigned) [Compound 84] | – |
| < 0.05 | – | – | – | COc1ncc(NC(=O)C(=O)N2C[C@@H](C)CC[C@@H]2c2ccc3sc(CCN(C)C)nc3c2)cc1C(N)=O (single isomer, unassigned) [Compound 1378] | IC50 ([4]; HAP1, SDMA in-cell western, HAP1 MTAP-deleted, read-out: HAP 1 MTAP deleted IC50): < 0.1 µM; MTAP intact/deleted ratio ([4]; IC50 ratio HAP1 MTAP-intact / HAP1 MTAP-deleted): A (an IC50 ratio greater than or equal to 10 fold); IC50 ([5]; Homo sapiens, HAP1, viability, HAP1 MTAP-deleted cell line, read-out: HAP1 MTAP deleted viability): < 1 µM |
| – | > 0.5 | > 0.5 | > 0.5 | Cc1cc(NC(=O)C(=O)N2C[C@H](C)CC[C@H]2c2ccc3c(c2)C(=O)NC3)cnc1N (single isomer, unassigned) [Compound 656] | – |
| – | > 0.5 | – | > 0.5 | Cc1cc(NC(=O)C(=O)N2CCC(N(C)C)C[C@H]2c2ccccc2)cnc1N (mixture of isomers) [Compound 975, N-(6-amino-5-methyl-3-pyridyl)-2-[(2S,4S)-4-(dimethylamino)-2-phenyl-1-piperidyl]-2-oxo-acetamide] | – |
| > 0.5 | > 0.5 | > 0.5 | – | C[C@@H]1CC[C@H](c2cccnc2)N(C(=O)C(=O)Nc2cncc(C(N)=O)c2)C1 (single isomer, unassigned) [Compound 98] | – |
| – | 0.05 to 0.5 | 0.05 to 0.5 | 0.05 to 0.5 | CNc1ccc([C@@H]2CC(F)(F)[C@@H](C)CN2C(=O)C(=O)Nc2cnc(N)c(C)c2)cn1 (racemic) [Compound 1054] | – |
| – | > 0.5 | > 0.5 | > 0.5 | Cc1cc(NC(=O)C(=O)N2C[C@H](C)[C@@H](C)C[C@@H]2c2ccccc2)cnc1N (single isomer, unassigned) [Compound 305] | – |
| – | – | – | – | C[C@@H]1CC[C@@H](c2ccccc2)N(C(=O)C(=O)Nc2cncc(C(N)=O)c2)C1 (single isomer, unassigned) [Compound 71] | IC50 ([4]; HAP1, read-out: HAP1 MTAP deleted IC50): > 1 µM; IC50 [5, 7]: > 10 µM |
| > 0.5 | > 0.5 | > 0.5 | – | Cc1cncc(NC(=O)C(=O)N2C[C@@H](C)CC[C@@H]2c2ccc(C)c(C)c2)c1 (single isomer, unassigned) [Compound 19] | – |
| – | > 0.5 | > 0.5 | – | CC[C@H]1CC[C@H](c2ccccc2)N(C(=O)C(=O)Nc2cncc(C)c2)C1 (single isomer, unassigned) [Compound 18] | – |
| – | – | – | – | Cc1cc(NC(=O)C(=O)N2C[C@@H](C)CC[C@@H]2c2ccc(C(F)F)cc2)cnc1N (single isomer, unassigned) [Compound 410] | IC50 [5, 7]: > 10 µM |

| IC50 [1, 6] [µM] | IC50 [2] [µM] | IC50 [3] [µM] | IC50 ([1]; read-out: No Cofactor/rel IC50) [µM] | Compound | other results |
| --- | --- | --- | --- | --- | --- |
| – | 0.05 to 0.5 | 0.05 to 0.5 | 0.05 to 0.5 | Cc1cc(NC(=O)C(=O)N2C[C@H](C)CC[C@H]2c2ccc3c(c2)CCC(=O)N3)cnc1C(F)(F)F (racemic) [Compound 650, 2-[(2R,5S)-5-Methyl-2-(2-oxo-3,4-dihydro-1H-quinolin-6-yl)-1-piperidyl]-N-[5-methyl-6-(trifluoromethyl)-3-pyridyl]-2-oxo-acetamide] | – |
| – | > 0.5 | > 0.5 | > 0.5 | Cc1ccc([C@H]2CC[C@H](C)CN2C(=O)C(=O)Nc2cncc(C(N)=O)c2)cn1 (single isomer, unassigned) [Compound 645] | – |
| > 0.5 | > 0.5 | > 0.5 | – | Cc1cc(NC(=O)C(=O)N2C[C@@H](C)CC[C@@H]2c2cccs2)cnc1N (single isomer, unassigned) [Compound 122] | – |
| – | > 0.5 | > 0.5 | > 0.5 | C[C@H]1C[C@@H](C)[C@H](c2ccccc2)N(C(=O)C(=O)Nc2cncc(C(N)=O)c2)C1 (single isomer, unassigned) [Compound 275, 5-(2-(3,5-dimethyl-2-phenylpiperidin-1-yl)-2-oxoacetamido)nicotinamide] | – |
| > 0.5 | > 0.5 | 0.05 to 0.5 | – | Cc1cc(NC(=O)C(=O)N2CCCC[C@@H]2c2cccnc2)cnc1N (single isomer, unassigned) [Compound 74] | – |
| – | > 0.5 | 0.05 to 0.5 | > 0.5 | NC(=O)c1cncc(NC(=O)C(=O)N2C[C@H](OC(F)F)CC[C@@H]2c2ccccc2)c1 (racemic) [Compound 400, 5-[[2-[(2R,5R)-5-(Difluoromethoxy)-2-phenyl-1-piperidyl]-2-oxo-acetyl]amino]pyridine-3-carboxamide] | – |
| – | > 0.5 | 0.05 to 0.5 | > 0.5 | NC(=O)c1cncc(NC(=O)C(=O)N2C[C@H](OC(F)(F)F)CC[C@H]2c2ccccc2)c1 (racemic) [Compound 411, 5-[[2-Oxo-2-[2-phenyl-5-(trifluoromethoxy)-1-piperidyl]acetyl]amino]pyridine-3-carboxamide] | – |
| > 0.5 | > 0.5 | > 0.5 | – | C[C@@H]1CC[C@H](C2CCCCC2)N(C(=O)C(=O)Nc2cncc(C(N)=O)c2)C1 (single isomer, unassigned) [Compound 127] | – |
| – | > 0.5 | > 0.5 | > 0.5 | COc1ncc(NC(=O)C(=O)N2C[C@H](C)CC[C@H]2C2CCCCC2)cc1C(N)=O (single isomer, unassigned) [Compound 370] | – |
| – | > 0.5 | > 0.5 | > 0.5 | C[C@H]1CC[C@@H](c2ccc(O)nc2)N(C(=O)C(=O)Nc2cncc(C(N)=O)c2)C1 (single isomer, unassigned) [Compound 402] | – |
| – | – | – | – | Cc1cc(NC(=O)C(=O)N2C[C@H](C)CC[C@H]2c2ccc3c(c2)CC(=O)N3)cnc1N (single isomer, unassigned) [Compound 677] | IC50 [5, 7]: > 10 µM |
| – | > 0.5 | > 0.5 | > 0.5 | Cc1cc(NC(=O)C(=O)N2C[C@@H](C)CC[C@@H]2c2cccnc2)cnc1N (single isomer, unassigned) [Compound 309] | – |
| – | – | – | – | CCc1cc(NC(=O)C(=O)N2C[C@@H](C)[C@@H](OC(C)C)C[C@@H]2c2ccc3scnc3c2)cnc1N (racemic) [Compound 1235] | MTAP intact/deleted ratio ([4]; IC50 ratio HAP1 MTAP-intact vs HAP1 MTAP-deleted): A (an IC50 ratio greater than or equal to 10 fold); IC50 ([5]; viability assay, MTAP-deleted cell line, read-out: HAP1 MTAP deleted viability): < 1 µM |
| – | > 0.5 | > 0.5 | > 0.5 | Cc1cc(NC(=O)C(=O)N2C[C@H](C)[C@H](C)C[C@@H]2c2ccccc2)cnc1N (single isomer, unassigned) [Compound 299] | – |
| – | – | – | – | Cc1cncc(NC(=O)C(=O)N2C(C)C(C)CC[C@H]2c2ccccc2)c1 (single isomer, unassigned) [Compound 41] | IC50 [5, 7]: > 10 µM |
| – | > 0.5 | > 0.5 | > 0.5 | C[C@@H]1C[C@@H](C)[C@@H](c2ccccc2)N(C(=O)C(=O)Nc2cncc(C(N)=O)c2)C1 (single isomer, unassigned) [Compound 286, 5-(2-(3,5-dimethyl-2-phenylpiperidin-1-yl)-2-oxoacetamido)nicotinamide] | – |
| – | – | – | – | Cc1cc(NC(=O)C(=O)N2C[C@H](C)CC[C@H]2c2ccccc2)cnc1N (single isomer, unassigned) [Compound 40] | IC50 [5, 7]: > 10 µM |
| – | > 0.5 | > 0.5 | > 0.5 | Cc1cc([C@H]2CC[C@H](C)CN2C(=O)C(=O)Nc2cncc(C(N)=O)c2)ccc1O (single isomer, unassigned) [Compound 330] | – |
